From patent publication US11952328B2, “Selective ship inhibitors for treating disease” (THE RESEARCH FOUNDATION FOR THE STATE UNIVERSITY OF NEW YORK, priority 2018, dated 2024)

Legend:
[1] = tested on: CT26 colon carcinoma cells; test: Subcutaneous CT26 colon carcinoma model; format: in vivo, BALB/C mice
Method: (§1) FIG. 7A and FIG. 7B show CT26 (FIG. 7A) and MC-38 (FIG. 7B) viability following in vitro treatment with 3AC for 24 h at indicated doses. Relative viability is expressed as frequency compared to solvent only treated cells. Kill curve summarizes pooled data from three independent experiments using six replicate wells/concentration with mean±SEM indicated. BALB/C mice were challenged with subcutaneous injection of CT26 colon carcinoma cells in the right flank. Mice were treated with either 2 consecutive days of 3AC or vehicle control each week as in FIG. 4A. Tumor size at […] 28 days (FIG. 7C), and tumor weight on day 28 determined after dissection of tumor (FIG. 7E). […] C57BL/6 mice were challenged with subcutaneous injection of MC-38 colon carcinoma cells in the right flank. Mice were treated with either 2 consecutive days of SHIP inhibitor or vehicle control each week as in FIG. 4A. Tumor size at 14, 21 and 25 days (FIG. 7D), and tumor weight (FIG. 7F) on day 25 were determined after dissection of tumor. […] FIG. 7A (n=18 per group. One-way ANOVA with Dunnett's multiple comparisons. 0 μM vs. 20 μM Adjusted p value=0.0463. All other concentrations of SHIP inhibitor compared with solvent only N.S.). FIG. 7B (n=18 per group. One-way ANOVA with Dunnett's multiple comparisons. All concentrations of SHIP inhibitor compared with solvent only N.S.). FIGS. 7C-7F graphs represent data from one of two independent experiments. FIG. 7C (n=10. Day 14 p<0.0001, Unpaired t test with Welch's correction. Day 21 p<0.0001, two-tailed student's t-test. Day 28 p<0.0001, two-tailed Student's t-test). FIG. 7E (n=10. P<0.0001, two-tailed Student's t-test) FIG. 7D (n=10. Day 14 p=0.0005, two-tailed student's t-test. Day 21 p=0.0009, two-tailed Student's t-test. Day 25 p=0.0009, two-tailed student's t-test). FIG. 7F (n=10. P=0.0067, two-tailed student's t-test).
Colorectal cancer is the second leading cause of cancer mortality in the United States (Siegel, R. L. et al., Colorectal cancer statistics, 2017. CA Cancer J Clin. (2017)). […]

MC-38 = MC-38 viability following in vitro treatment; format: cell-based, mice; conditions: in vitro 24 h; all concentrations N.S. vs solvent only
Method: as §1, with “FIGS. 7C-7F graphs represent data from one of two independent experiments. FIG. 7C (n=10. Day 14 p<0.0001, Unpaired t test with Welch's correction. Day 21 p<0.0001, two-tailed student's t-test. Day 28 p<0.0001, two-tailed Student's t-test). FIG. 7E (n=10. P<0.0001, two-tailed Student's t-test) FIG. 7D (n=10. Day 14 p=0.0005, two-tailed student's t-test. Day 21 p=0.0009, two-tailed Student's t-test. Day 25 p=0.0009, two-tailed student's t-test). FIG. 7F (n=10. P=0.0067, two-tailed student's t-test).” left out

CC(C)CCC[C@@H](C)[C@H]1CC[C@H]2[C@@H]3CCC4C[C@H](N)CC[C@]4(C)[C@H]3CC[C@]12C (stereo partly drawn) [Compound 3AC, 3-α-aminocholestane]
tumor weight ([1]; day 28, vs vehicle): significant reduction | tumor size ([1]; two consecutive days each week, days 14, 21, 28, vs vehicle): significant reduction | histological analysis (H&E) of tumors ([1]; vs vehicle): prominent zones of tumor cell death | MC-38 viability (direct killing) (MC-38): resistant to direct killing
